According to patent publication US8076327B2, “Condensed imidazole derivatives as aldosterone synthase inhibitors” (Novartis AG, priority 2006, dated 2011):

How the values were obtained:
[1] = tested on: plasma corticosterone levels; test: Suppression of plasma corticosterone in ACTH-stimulated rats; format: in vivo, Wistar rats; settings: 4 mg/kg p.o.; plasma level 2 h after dosing relative to 1 h prior to dosing; rat
Experimental: (§1) The aldosterone- and corticosterone-suppressing activity of herein described compounds may be assessed with the following in vivo protocol.
(§2) Adult male Wistar rats weighing between 250 and 350 grams are kept under the usual 12-hour light and 12-hour dark conditions at a temperature of 23° C.±2° C. On the first day of the experiment, the animals receive a subcutaneous injection of a depot ACTH product in a dose of 1.0 mg/kg weight (SYNACTHEN-Depot, Novartis, Basel, CH) 16 hours prior to the administration of a test compound. […] An alternative method to stimulate aldosterone secretion consists in subjecting rats to a low salt diet for 48 hours and applying the diuretic furosemide at 10 mg/kg by subcutaneous or intraperitoneal administration 16 hours, respectively 2 hours prior to the start of the experiment. On the second day of the experiment, the animals are divided into test groups of 5 animals and subjected to a first bleed 1 hour prior to the administration of test compound. Subsequently, and 16 hours after the injection of the ACTH product, the animals receive either vehicle or test compound dissolved in vehicle in a variable dose range from 0.02 to 20 mg/kg by oral gavage. The animals are bled two more times from the vena subclavia under isoflurane anaesthesia 2 and 6 hours after dosing. The blood is collected in heparin-treated tubes. The plasma samples are obtained by centrifugation and stored at −20° C. An alternative method to bleed animals time-dependently consists in using animals that are chronically carotid catheterized which allows the periodical sampling of up to 0.2 ml of blood using an AccuSampler (DiLab Europe, Lund, Sweden). The blood sampling with the AccuSampler may occur 1 hour prior to the administration of a test compound and 2, 4, 6, 8, 12, 16 and 24 hours thereafter. The blood samples are anticoagulated with heparin and centrifuged. The aldosterone and corticosterone concentrations of the plasma samples can be determined with a radioimmunoassay as described above for the in vitro test systems.
(§3) The selective suppression of plasma steroid levels as for instance aldosterone in comparison to corticosterone may serve as a measure for in vivo bioavailability and pharmacodynamic enzyme inhibitory activity of the herein described compounds. The evaluation of the data may occur relative to the application of vehicle or quantitatively by determination of the area under the curve (AUC).

[2] = tested on: plasma aldosterone levels; test: Suppression of plasma aldosterone in ACTH-stimulated rats; format: in vivo, Wistar rats; settings: 4 mg/kg p.o.; plasma level 2 h after dosing relative to 1 h prior to dosing; rat
Experimental: as §1, §2, §3

[3] = target: T1, recombinant human Cyp19 enzyme (Homo sapiens, UniProt P11511); test: Cyp19/MFC high throughput enzyme inhibition kit (aromatase); format: biochemical
T1 construct: purchased Becton Dickinson Biosciences, San Jose, Calif., USA
T1 sequence (P11511 1-503): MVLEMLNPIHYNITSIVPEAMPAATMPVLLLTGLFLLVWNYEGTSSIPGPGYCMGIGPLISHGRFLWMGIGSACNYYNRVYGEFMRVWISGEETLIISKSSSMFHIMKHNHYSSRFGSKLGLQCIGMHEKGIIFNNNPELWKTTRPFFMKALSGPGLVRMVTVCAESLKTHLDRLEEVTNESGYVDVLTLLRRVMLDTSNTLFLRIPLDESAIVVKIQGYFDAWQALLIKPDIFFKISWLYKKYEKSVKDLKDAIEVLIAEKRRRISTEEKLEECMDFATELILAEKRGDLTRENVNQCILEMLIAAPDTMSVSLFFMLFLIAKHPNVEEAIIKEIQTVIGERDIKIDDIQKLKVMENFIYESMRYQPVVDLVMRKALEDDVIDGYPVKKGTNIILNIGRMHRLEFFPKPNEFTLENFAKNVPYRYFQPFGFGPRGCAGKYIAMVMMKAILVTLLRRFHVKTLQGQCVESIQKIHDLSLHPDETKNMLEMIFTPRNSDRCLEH
Experimental: The compounds of the formula (Ia) have at least one asymmetric carbon atom, which is labelled “*”. A compound of the formula (Ia) is to be understood as a compound having a specific configuration around the designated asymmetric carbon atom. If a synthesis method is used which leads to racemic compounds, the racemate resolution is carried out in accordance with conventional methods, such as via a chiral HPLC column. […] The aforementioned aromatase inhibitory activity can, as the skilled worker is well aware and as described below, be comfortably determined using the commercial Cyp19 enzyme inhibition kit, preferably the Cyp19/methoxy-4-trifluoromethyl-coumarin (MFC) high throughput inhibition kit (Becton Dickinson Biosciences, San Jose, Calif., USA) as described hereafter. In the abovementioned inhibition kit, compounds of the formula (Ia) have an activity which is at least 10 times lower preferably 20 times lower, but more preferably 40 times lower than the compounds of the formula (Ia) with the opposite configuration around the asymmetric carbon atom labelled “*”. A lower inhibiting activity corresponds to a higher IC50 value.
The Cyp19/methoxy-4-trifluoromethyl-coumarin (MFC) high throughput inhibition kit (Becton Dickinson Biosciences, San Jose, Calif., USA), for example, is designed to screen for potential inhibitors of Cyp19 catalytic activity in a 96-well format. […]

SMILES: CC1(c2ccc(C#N)cc2)SCCn2cncc21 (stereo not drawn) [Example 4, 4-(8-Methyl-5,6-dihydro-8H-imidazo[5,1-c][1,4]thiazin-8-yl)-benzonitrile]
- Corticosterone levels (% change at 2 h) [1]: −10%
- Aldosterone levels (% change at 2 h) [2]: −19%

SMILES: N#Cc1ccc(C2SCCn3cncc32)cc1 (stereo not drawn) [Example 2, 4-(5,6-Dihydro-8H-imidazo[5,1-c][1,4]thiazin-8-yl)benzonitrile]
- Corticosterone levels (% change at 2 h) [1]: −22%
- Aldosterone levels (% change at 2 h) [2]: −56%

SMILES: N#Cc1ccc(C2OCCn3cncc32)cc1 (racemic) [antipode of 24, 4-(5,6-Dihydro-8H-imidazo[5,1-c][1,4]oxazin-8-yl)benzonitrile]
- IC50 [3]: 7.1 nM

SMILES: N#Cc1cccc(C2OCCn3cncc32)c1 (stereo not drawn) [Example 19, 3-(5,6-Dihydro-8H-imidazo[5,1-c][1,4]oxazin-8-yl)benzonitrile]
- Corticosterone levels (% change at 2 h) [1]: 1.7%
- Aldosterone levels (% change at 2 h) [2]: −65%

SMILES: CC(=O)c1ccc(C2OCCn3cncc32)cc1 (stereo not drawn) [Example 18, 1-[4-(5,6-Dihydro-8H-imidazo[5,1-c][1,4]oxazin-8-yl)phenyl]ethanone]
- Corticosterone levels (% change at 2 h) [1]: 4%
- Aldosterone levels (% change at 2 h) [2]: −33%
